Where a name gives a salt, the structure may show the parent alone.

For one assay, the target named is T1, human cloned 5-HT6 receptors (Homo sapiens, UniProt P50406).
T1 construct: expressed in transfected cells; host or cells: HeLa cells (membrane preparation)
T1 sequence (P50406 whole entry): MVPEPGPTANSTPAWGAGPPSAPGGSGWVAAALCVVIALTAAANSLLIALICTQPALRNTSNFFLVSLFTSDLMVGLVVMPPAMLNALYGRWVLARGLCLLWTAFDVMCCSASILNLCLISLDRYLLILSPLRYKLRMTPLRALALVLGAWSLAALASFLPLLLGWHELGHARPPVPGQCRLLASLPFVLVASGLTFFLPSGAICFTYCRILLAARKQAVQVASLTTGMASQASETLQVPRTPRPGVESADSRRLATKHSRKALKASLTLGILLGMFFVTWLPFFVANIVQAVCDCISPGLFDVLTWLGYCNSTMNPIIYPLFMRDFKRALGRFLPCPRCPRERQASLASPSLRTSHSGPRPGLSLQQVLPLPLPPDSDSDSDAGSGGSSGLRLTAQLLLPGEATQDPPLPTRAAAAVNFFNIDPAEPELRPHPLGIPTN
Nature of the assay: 5-HT6 binding affinity, [3H]-LSD displacement on membranes of Hela cells expressing human cloned 5-HT6 receptors. Conditions: 5-HT6 Binding Ki, [3H]-LSD 3.0 nM, Hela cell membranes, 120 min at room temperature. Here is the method:
The affinity of test compounds for the serotonin 5-HT6 receptor is evaluated in the following manner. Cultured Hela cells expressing human cloned 5-HT6 receptors are harvested and centrifuged at low speed (1,000×g) for 10.0 min to remove the culture media. The harvested cells are suspended in half volume of fresh physiological phosphate buffered saline solution and recentrifuged at the same speed. This operation is repeated. The collected cells are then homogenized in ten volumes of 50 mM Tris.HCl (pH 7.4) and 0.5 mM EDTA. The homogenate is centrifuged at 40,000×g for 30.0 min and the precipitate is collected. The obtained pellet is resuspended in 10 volumes of Tris.HCl buffer and recentrifuged at the same speed. The final pellet is suspended in a small volume of Tris.HCl buffer and the tissue protein content is determined in aliquots of 10-25 μl volumes. Bovine Serum Albumin is used as the standard in the protein determination according to the method described in Lowry et al., J. Biol. Chem., 193:265 (1951). The volume of the suspended cell membranes is adjusted to give a tissue protein concentration of 1.0 mg/ml of suspension. The prepared membrane suspension (10 times concentrated) is aliquoted in 1.0 ml volumes and stored at −70° C. until used in subsequent binding experiments.
Binding experiments are performed in a 96 well microtiter plate format, in a total volume of 200 μl. […] The test compounds are added in 20.0 μl volume.
The reaction is allowed to proceed in the dark for 120 min at room temperature, at which time, the bound ligand-receptor complex is filtered off on a 96 well unifilter with a Packard Filtermate® 196 Harvester. The bound complex caught on the filter disk is allowed to air dry and the radioactivity is measured in a Packard TopCount® equipped with six photomultiplier detectors, after the addition of 40.0 μl Microscint®−20 scintillant to each shallow well. The unifilter plate is heat-sealed and counted in a PackardTopCount® with a tritium efficiency of 31.0%.
Binding in the presence of varying concentrations of test compound is expressed as a percentage of specific binding in the absence of test compound. The results are plotted as log % bound versus log concentration of test compound. Nonlinear regression analysis of data points with a computer assisted program Prisms® yields both the IC50 and the Ki values of test compounds with 95% confidence limits.
The amount of displacement by the test compound is given in percent (%) inhibition and is derived from the following equation:
[formula] where B0 is the amount of CPM bound in the presence of the testing agent. NSB represents the CPM bound in the presence of a saturating concentration of a displacer and TB represents the total amount of CPM bound at zero (0) concentration of test compound.
Alternatively, a linear regression line of data points is plotted, from which the IC50 value is determined and the Ki value is determined based upon the following equation: Ki=IC50/(1+L/KD) where L is the concentration of the radioactive ligand used and KD is the dissociation constant of the ligand for the receptor, both expressed in nM.
The Ki is the dissociation constant of the complex between target and ligand, obtained from inhibition or displacement. Compound `CCCCn1nc(S(=O)(=O)c2cccc3ccccc23)c2cc(N3CCN(C)CC3)ccc21` [Example 48] gave a Ki of 4 nM. Same read-out and setting: to `CN1CCN(c2ccc3[nH]nc(S(=O)(=O)c4cccs4)c3c2)CC1` [Example 54] belongs 8 nM.

The assay is the same for the next values; noted with them: [3H]-LSD 3.0 nM, Hela cell membranes, 120 min at room temperature; read-out: 5-HT6 Binding Ki.
Consider `O=S(=O)(c1ccccc1)c1n[nH]c2ccc(N3CCN(Cc4ccccc4)CC3)cc12` [Example 4, 5-(4-Benzylpiperazin-1-yl)-3-(phenylsulfonyl)-1H-indazole hydrochloride], for which the Ki was 86 nM. Regarding `COc1cc2[nH]nc(S(=O)(=O)c3ccccc3)c2cc1N1CCN(Cc2ccccc2)CC1` [Example 7, 5-(4-Benzylpiperazin-1-yl)-6-methoxy-3-(phenylsulfonyl)-1H-indazole hydrochloride], the Ki came to 113 nM. The same measure, in the same setting: with `COc1cc2c(cc1N1CCN(Cc3ccccc3)CC1)c(S(=O)(=O)c1ccccc1)nn2-c1ccccc1` [Example 8, 5-(4-Benzylpiperazin-1-yl)-6-methoxy-1-phenyl-3-(phenylsulfonyl)-1H-indazole hydrochloride] the figure was 399 nM; with `COc1cc2c(cc1N1CCNCC1)c(S(=O)(=O)c1ccccc1)nn2-c1ccccc1` [Example 9, 6-Methoxy-1-phenyl 3-(phenylsulfonyl)-5-piperazin-1-yl-1H-indazole hydrochloride], 97 nM. Consider `COc1cc2c(cc1N1CCNCC1)c(S(=O)(=O)c1ccccc1)nn2-c1ccc(C(F)(F)F)cc1` [Example 10, 6-Methoxy-3-(phenylsulfonyl)-5-(piperazin-1-yl)-1-[4-(trifluoromethyl)phenyl]-1H-indazole hydrochloride], for which the Ki is 224 nM. Same read-out and setting: with `CCn1nc(S(=O)(=O)c2ccccc2)c2cc(N3CCN(Cc4ccccc4)CC3)ccc21` [Example 12, 5-(4-Benzylpiperazin-1-yl)-1-ethyl-3-(phenylsulfonyl)-1H-indazole dihydrochloride] the figure was 64 nM; with `CN1CCN(c2ccc3[nH]nc(S(=O)(=O)c4cccc5ccccc45)c3c2)CC1` [Example 14], 1 nM. Turning to `CCCn1nc(S(=O)(=O)c2cccc3ccccc23)c2cc(N3CCN(C)CC3)ccc21` [Example 45], the Ki amounted to 2 nM.

As for `CN1CCN(c2ccc3c(c2)c(S(=O)(=O)c2cccc4ccccc24)nn3C)CC1` [Example 47], the Ki came out at 2 nM. The same measure, in the same setting: to `CN1CCN(c2ccc3c(c2)c(S(=O)(=O)c2cccc4ccccc24)nn3Cc2cccc(Cl)c2)CC1` [Example 49] belongs 6 nM; to `CC(C)n1nc(S(=O)(=O)c2cccc3ccccc23)c2cc(N3CCN(C)CC3)ccc21` [Example 50], 2 nM; to `CC(C)Cn1nc(S(=O)(=O)c2cccc3ccccc23)c2cc(N3CCN(C)CC3)ccc21` [Example 51], 1 nM. On the same count and under the same terms, to `CN1CCN(c2ccc3c(c2)c(S(=O)(=O)c2cccc4ccccc24)nn3Cc2ccccc2)CC1` [Example 52] belongs 2 nM. As for `O=S(=O)(c1cccc2ccccc12)c1n[nH]c2ccc(N3CCNCC3)cc12` [Example 53], the Ki is 1 nM. `Cc1ccc(S(=O)(=O)c2n[nH]c3ccc(N4CCN(C)CC4)cc23)cc1` [Example 56]: the Ki is 5 nM. The same measure, in the same setting: to `CN1CCN(c2ccc3[nH]nc(S(=O)(=O)c4ccccc4F)c3c2)CC1` [Example 58] belongs 3 nM. Consider `CN1CCN(c2ccc3[nH]nc(S(=O)(=O)c4ccc(F)cc4)c3c2)CC1` [Example 60], for which the Ki was 5 nM. Same read-out and setting: to `COc1cccc(S(=O)(=O)c2n[nH]c3ccc(N4CCN(C)CC4)cc23)c1` [Example 63] belongs 1 nM.

Still in this assay, the particulars now being: test compound at 1 μM; displacement of [3H]-LSD.
As usually defined, the inhibition is the drop in the measured response relative to a control, in per cent. A high value points to a response far below the control. `O=S(=O)(c1cccc(F)c1)c1n[nH]c2ccc(N3CCN(Cc4ccccc4)CC3)cc12` [Example 5, 5-(4-Benzylpiperazin-1-yl)-3-[(3-fluorophenyl)sulfonyl]-1H-indazole hydrochloride]: the inhibition at 1 µM worked out at 53%. `Cn1nc(S(=O)(=O)c2ccccc2)c2cc(N3CCN(Cc4ccccc4)CC3)ccc21` [Example 11, 5-(4-Benzylpiperazin-1-yl)-1-methyl-3-(phenylsulfonyl)-1H-indazole] registered an inhibition at 1 µM of 67%.

The values are drawn from patent US7560470B2, “Heterocyclyl-3-sulfonylindazoles as 5-hydroxytryptamine-6 ligands” (Wyeth, priority 2003, dated 2009).
